Here are results for 5 molecules from paper PMC10132538, “Regulation of the two-pore domain potassium channel, THIK-1 and THIK-2, by G protein coupled receptors” (PLOS ONE, 2023).

Read-outs that look alike come from different tables or passages of the source.

Experiment [1] deals with T1, M1R-YFP / ΔN-THIK-2 channel (Homo sapiens, UniProt P11229).
T1 construct: expressed in transfected cells; host or cells: CHO-K1
T1 sequence (P11229 1-460): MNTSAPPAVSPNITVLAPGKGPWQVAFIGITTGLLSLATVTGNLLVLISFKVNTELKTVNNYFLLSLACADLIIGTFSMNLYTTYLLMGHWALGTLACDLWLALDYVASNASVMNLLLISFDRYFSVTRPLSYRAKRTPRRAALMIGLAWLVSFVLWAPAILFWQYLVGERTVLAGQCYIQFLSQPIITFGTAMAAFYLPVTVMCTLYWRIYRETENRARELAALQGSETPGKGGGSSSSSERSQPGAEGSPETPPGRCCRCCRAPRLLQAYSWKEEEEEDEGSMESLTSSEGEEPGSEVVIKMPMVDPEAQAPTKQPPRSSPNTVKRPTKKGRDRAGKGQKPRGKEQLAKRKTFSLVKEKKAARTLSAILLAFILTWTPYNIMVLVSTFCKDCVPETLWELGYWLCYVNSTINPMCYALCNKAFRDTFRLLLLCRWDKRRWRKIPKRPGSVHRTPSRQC
The experiment in a line: M1R-YFP-induced increase of ΔN-THIK-2 channel current in CHO-K1 cells. The experiment is classed as cell-based, mouse. The note with it: oxo-M 10 μM. The text has this:
(§1) Coding region of mGu2 (M1-P840) was amplified by conventional PCR with designed primers and the resulting product was subcloned into pEYFP-N1 vector at the BglII and EcoRI sites. The cDNAs for mouse THIK-2 channel and dimeric THIK channels were subcloned into pcDNA3.1(-) vector. To increase the surface membrane expression of the THIK-2 channel, 29 residues (Ser2-Ser30) were removed (ΔN-THIK-2). […] Ci-VSP-IRES-GFP vector was kindly gifted by Dr. Y. Okamura (Osaka University, Osaka, Japan). HEK293T cells or CHO-K1 cells were seeded on glasses and transfected with the plasmid DNAs for THIK channels, receptors and a transfection marker of yellow fluorescent protein (YFP). Electrophysiological experiments were performed 24–72 h after the transfection. […] Pertussis toxin (PTX) was purchased from Wako (Osaka, Japan). […] All reagents were dissolved at high concentration and stored at -20 °C as the stock solutions. The stock reagent solution was diluted at concentrations for the electrophysiological experiments. PTX was solved in the culture medium (final concentration, 300 ng/mL) and cells were incubated in it for more than 16 h. U73122 or U73343 (final concentration, 2 μM each) was dissolved in Hanks’ Balanced Salt Solution (HBSS, Invitrogen, Carlsbad, CA, USA) supplemented with 1 mM Ca^2+ and 0.3 mM Mg^2+. […]

Experiment [2] relates to THIK-1 channel. In words: Basal current (I0) density of THIK-1 channel at 0 mV in HEK293T cells. The format is cell-based. The note with it: for Basal current (I0) density of THIK-1 channel: 0 mV, before agonist; for Basal current I0: THIK-1 & M1R. The text has this:
(§2) Coding region of mGu2 (M1-P840) was amplified by conventional PCR with designed primers and the resulting product was subcloned into pEYFP-N1 vector at the BglII and EcoRI sites. The cDNAs for mouse THIK-2 channel and dimeric THIK channels were subcloned into pcDNA3.1(-) vector. To increase the surface membrane expression of the THIK-2 channel, 29 residues (Ser2-Ser30) were removed (ΔN-THIK-2). […] Ci-VSP-IRES-GFP vector was kindly gifted by Dr. Y. Okamura (Osaka University, Osaka, Japan). HEK293T cells or CHO-K1 cells were seeded on glasses and transfected with the plasmid DNAs for THIK channels, receptors and a transfection marker of yellow fluorescent protein (YFP). Electrophysiological experiments were performed 24–72 h after the transfection. […] Pertussis toxin (PTX) was purchased from Wako (Osaka, Japan). […] All reagents were dissolved at high concentration and stored at -20 °C as the stock solutions. The stock reagent solution was diluted at concentrations for the electrophysiological experiments. PTX was solved in the culture medium (final concentration, 300 ng/mL) and cells were incubated in it for more than 16 h. U73122 or U73343 (final concentration, 2 μM each) was dissolved in Hanks’ Balanced Salt Solution (HBSS, Invitrogen, Carlsbad, CA, USA) supplemented with 1 mM Ca^2+ and 0.3 mM Mg^2+. Cells were incubated in HBSS with U73122 or U73343 for 10 min at room temperature before the whole cell current recording.
(§3) Composition of bath solution was (in mM) 140 NaCl, 4 KCl, 1 CaCl2, 0.3 MgCl2, 10 HEPES (pH 7.4 adjusted with NaOH). The pipette solution for whole cell patch clamp experiments contained (mM) 130 KCl, 5 Na2-ATP, 3 EGTA, 0.1 CaCl2, 10 HEPES, 4 MgCl2, (pH 7.3 adjusted with KOH). GTP (0.3 mM) was supplemented in the pipette solution. Once the whole cell configuration was established, the cell was held at -80mV and ramp pulses (-120mV to +40mV for 0.4 sec) were applied every 5 sec. Various concentrations of the agonists were applied using a fast perfusion system (VC77SP, Warner Instruments, Hamden, CT, USA). The PKC inhibitor chelerythrine was included in the pipette solution.
(§4) The amplitude of the THIK-1 channel current at 0 mV was measured from every trace induced by the ramp pulse protocol to minimize the fraction of non-selective cationic leak current. The current amplitude before the agonist application was set as the basal current amplitude (I0). The effects of GPCRs on the THIK-1 channel were evaluated as the ratio of the current amplitude after the agonist application to I0 (Iagonist/I0). The EC50 values were estimated by fitting the concentration response curve to a Hill equation (Origin2016; OriginLab, Northampton, MA, USA). […] The effects of A2aR on the Gi/o-R-induced current increase of the THIK-1 channel was estimated as follows. […] All data are shown as means and S.D. The statistical significance between two or more than two groups was estimated by unpaired Student’s t-test or by a one-way analysis of variance (ANOVA) followed by Tukey’s test, respectively. […] Values of p≤ 0.05 were considered as statistically significant (***:p≤0.001, **:0.001<p≤0.01, *:0.01<p≤0.05, n.s.:p>0.05).

For the next experiment, the target named is T2, M1R (Homo sapiens, UniProt P11229).
T2 construct: expressed in transfected cells; host or cells: HEK293T
T2 sequence (P11229 1-460): T1 sequence (P11229 1-460)
The experiment in a line: M1R-induced increase of THIK-1 channel current, whole cell patch clamp in HEK293T cells. The following applies: for Ioxo/I0: oxo-M 10 μM. The format is cell-based.
Description: as §2, §3, §4
Background: Patch clamp records ionic current or voltage across a cell membrane.

For another experiment, the target named is T3, M3R (Homo sapiens, UniProt P20309).
T3 construct: expressed in transfected cells; host or cells: HEK293T
T3 sequence (P20309 whole entry): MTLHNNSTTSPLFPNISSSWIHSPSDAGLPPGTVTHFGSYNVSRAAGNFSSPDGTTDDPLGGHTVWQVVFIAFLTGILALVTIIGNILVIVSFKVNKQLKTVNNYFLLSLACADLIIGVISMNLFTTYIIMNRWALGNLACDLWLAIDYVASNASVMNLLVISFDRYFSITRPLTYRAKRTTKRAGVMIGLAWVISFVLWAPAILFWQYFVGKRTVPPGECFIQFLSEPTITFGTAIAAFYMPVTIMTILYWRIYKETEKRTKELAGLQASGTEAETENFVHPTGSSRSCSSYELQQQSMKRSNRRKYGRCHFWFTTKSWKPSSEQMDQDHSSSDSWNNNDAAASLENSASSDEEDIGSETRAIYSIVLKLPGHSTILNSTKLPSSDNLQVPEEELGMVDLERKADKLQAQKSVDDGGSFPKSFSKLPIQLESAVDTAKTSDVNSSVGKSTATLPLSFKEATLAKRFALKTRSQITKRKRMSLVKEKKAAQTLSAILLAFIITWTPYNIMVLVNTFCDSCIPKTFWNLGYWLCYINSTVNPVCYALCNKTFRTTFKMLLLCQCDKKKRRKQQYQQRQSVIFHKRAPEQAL
The experiment in a line: M3R-induced increase of THIK-1 channel current, whole cell patch clamp in HEK293T cells. The experiment is classed as cell-based.
Description: as §1, with “experiments.” for “experiments. PTX was solved in the culture medium (final concentration, 300 ng/mL) and cells were incubated in it for more than 16 h. U73122 or U73343 (final concentration, 2 μM each) was dissolved in Hanks’ Balanced Salt Solution (HBSS, Invitrogen, Carlsbad, CA, USA) supplemented with 1 mM Ca^2+ and 0.3 mM Mg^2+.”
(§5) The amplitude of the THIK-1 channel current at 0 mV was measured from every trace induced by the ramp pulse protocol to minimize the fraction of non-selective cationic leak current. […] The effects of GPCRs on the THIK-1 channel were evaluated as the ratio of the current amplitude after the agonist application to I0 (Iagonist/I0). […]

In the next experiment the target is T4, M2R (Homo sapiens, UniProt P08172).
T4 construct: expressed in transfected cells; host or cells: HEK293T
T4 sequence (P08172 1-466): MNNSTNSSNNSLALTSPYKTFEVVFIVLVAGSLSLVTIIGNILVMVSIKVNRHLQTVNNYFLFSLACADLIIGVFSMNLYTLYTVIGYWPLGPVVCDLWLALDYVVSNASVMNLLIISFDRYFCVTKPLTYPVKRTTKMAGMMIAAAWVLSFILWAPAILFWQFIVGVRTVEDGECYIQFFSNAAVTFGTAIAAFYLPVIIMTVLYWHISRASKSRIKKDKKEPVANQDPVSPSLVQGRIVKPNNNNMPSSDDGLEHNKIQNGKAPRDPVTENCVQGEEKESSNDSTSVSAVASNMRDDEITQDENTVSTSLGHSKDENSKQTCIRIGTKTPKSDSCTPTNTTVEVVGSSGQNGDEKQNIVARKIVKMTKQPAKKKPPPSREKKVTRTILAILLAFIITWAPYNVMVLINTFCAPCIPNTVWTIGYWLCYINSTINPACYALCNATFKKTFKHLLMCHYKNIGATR
In words: M2R-induced increase of THIK-1 channel current, whole cell patch clamp in HEK293T cells. The experiment is classed as cell-based.
Description: as §1, with “experiments.” for “experiments. PTX was solved in the culture medium (final concentration, 300 ng/mL) and cells were incubated in it for more than 16 h. U73122 or U73343 (final concentration, 2 μM each) was dissolved in Hanks’ Balanced Salt Solution (HBSS, Invitrogen, Carlsbad, CA, USA) supplemented with 1 mM Ca^2+ and 0.3 mM Mg^2+.”
as §5

In experiment [3] the test system is endogenously expressed channels in HEK293T cells. The experiment in a line: Effect of receptor stimulation on the endogenous current in HEK293T cells without THIK-1. The note with it: no THIK-1. The format is cell-based. The text has this: The amplitude of the current increase at the 15th trace (ΔI15th) after the application of GABA or oxo-M were normalized to that at the 5th traces (ΔI5th) with or without additional activation of A2aR (ΔI15th/ΔI5th).
The current density at 0 mV (I0) in HEK293T cell transfected with indicated receptors and the effects of the receptor stimulation are shown as Mean and S.D.

For experiment [4], the system named is THIK-1 channel. On the set-up: method as in PMID 24081450. The following applies: cited from earlier work.
Experiment [5] deals with THIK-1 channel. More on the design: method as in PMID 34928298. The note with it: cited from earlier work.
Where [6] appears, read: chelerythrine 3 μM in pipette solution.
Setting [7] is: chelerythrine 10 μM in pipette solution.
[8] abbreviates: chelerythrine 30 μM in pipette solution.
The mark [9] stands for this setting: concentration response of THIK-1 current increase.
Setting [10] is: concentration response of THIK-1 current increase (Iagonist/I0), Hill fit.

A word on the EC50: it is the concentration at which the effect is half-maximal. The low end stands for an effect from little substance, the high end for a need for much substance.

`COc1ccc2c(c1)CC[C@@H]1[C@@H]2CC[C@]2(C)[C@@H](NCCCCCCN3C(=O)CCC3=O)CC[C@@H]12` [U73343]: in experiment [1], the “effect of M1R-YFP on ΔN-THIK-2 channel after PLC reagent” value is on record as “not”. Besides, the “Basal current (I0) density of THIK-1 channel” value with THIK-1 channel [2] (THIK-1 + M1R, PLC reagent 2 μM 10 min) is 46.5 ± 22.3 (10)^n.s pA/pF; in the experiment with THIK-1 channel [2] (THIK-1 + M3R, PLC reagent 2 μM 10 min) it was 113.3 ± 122.1 (7)^n.s pA/pF; in the experiment on THIK-1 channel [2] (THIK-1 + mGlu1, PLC reagent 2 μM 10 min), 121.0 ± 104.7 (12)^n.s pA/pF.
`COc1ccc2c(c[n+](C)c3c4cc5c(cc4ccc23)OCO5)c1OC` [chelerythrine, Chelerythrine]: the entries for the “Basal current I0” value in the experiment with THIK-1 channel [2] (setting [6]), with THIK-1 channel [2] (setting [7]) and in the experiment with THIK-1 channel [2] (setting [8]) were 43.1 ± 46.8 ^n.s. pA/pF, 56.4 ± 46.7 ^n.s. pA/pF and 22.8 ± 15.5 ^n.s. pA/pF, respectively. Moreover, the “effect of PKC inhibitor on the effect of M1R” value on M1R (3–30 μM in the pipette solution) is recorded as “did not inhibit the effect of M1R”. Besides, the Ioxo/I0 is 4.4 ± 2.4 ^n.s at M1R (setting [6]), 2.2 ± 0.6 ^n.s on M1R (setting [7]) and 2.7 ± 1.0 ^n.s at M1R (setting [8]).
Take `C[N+](C)(C)CC#CCN1CCCC1=O` [oxo-M, oxotremorine-M]: the “n; Hill coefficient” value on M3R (setting [9]) was 1.07 ± 0.43; on M2R (setting [9]) it was 1.54 ± 0.37; on M1R (concentration response of THIK-1 current increase, HEK293T), 1.14 ± 0.22. The EC50 stood at 400 ± 310 nM at M3R (setting [10]); 62700 ± 35800 nM at M2R (setting [10]); 270 ± 160 nM at M1R (concentration response of THIK-1 current increase (Iagonist/I0), Hill fit, HEK293T). On M1R (chelerythrine 0 μM (control of Table 3)), this molecule came in with an Ioxo/I0 of 2.8 ± 1.1. Further, the “Effect of agonist (Iagonist/I0)” value was 0.95 ± 0.15 in experiment [3] (HEK293T transfected with M1R), 0.97 ± 0.12 in experiment [3] (HEK293T transfected with M2R) and 1.01 ± 0.13 in experiment [3] (HEK293T transfected with M3R).
As for `CCCCCCCCCCCCCC(=O)O[C@@H]1[C@@H](C)[C@@]2(O)[C@@H](C=C(CO)C[C@]3(O)C(=O)C(C)=C[C@@H]23)[C@@H]2C(C)(C)[C@]12OC(C)=O` [phorbol myristate acetate], the “activation of the THIK-1 channel” value with THIK-1 channel [4] is recorded as “did not activate”.
As to “phosphatidyl inositol bisphosphate [PIP2]”, the “activation of the THIK-1 channel” value in the experiment with THIK-1 channel [5] is given as “directly activate”.
